Assay results published in US20100324285A1, “ANTIINFLAMMATORY AGENT COMPRISING 2-AMINOPHENOL OR DERIVATIVE THEREOF AS ACTIVE INGREDIENT” (priority 2006, published 2010).
One block for each compound: values may come before it.

Legend:
RBL-2H3 = assay: Degranulation reaction of basocyte (β-hexosaminidase release); assay type: cell-based, rat; conditions: for concentration at which inhibiting activity on degranulation was exerted: summary of Table 3
Experimental: Degranulation rate (%) and inhibition rate of degranulation (%) were calculated based on the measurements of β-hexosaminidase activity in the granules released from the cells by degranulation reaction.
Rat cancer cells from basocyte RBL-2H3(catalognumber“JCRB0023”, commercialized by Health Science Research Resources Bank of Japan Health Sciences Foundation), known to be degranulated by cross-linkage of IgE, were used after cultured in a MEM medium (commercialized by Nissui Pharmaceutical Co., Ltd.) supplemented with 10% (v/v) FCS.
The above cells were recovered from a flask by conventional trypsin-EDTA treatment, then suspended in a MEM medium supplemented with 10% (v/v) FCS to give a cell concentration of 5×10^5 cells/ml. The suspension was inoculated to a 24-well microplate in a volume of 400 μl per well, cultured in a 5% (v/v) carbon dioxide incubator for 3 to 5 hours, then admixed with 0.625 μg/ml of anti dinitrophenol (hereinafter abbreviated as “DNP”) mouse IgE (commercialized by Sigma-Aldrich, Inc., diluted by MEM medium supplied with 10% (v/v) FCS) in a volume of 100 μl per well to sensitize the cells by IgE (a final concentration of the anti DNP-IgE was 0.125 μg/ml). After the cells were cultured in the 5% (v/v) carbon dioxide incubator overnight, the supernatant was removed by suction, and then each well was washed twice with Siraganian buffer (119 mM NaCl, 5 mM KCl, 0.4 mM MgCl2, 25 mM piperazine-N,N″-bis(2-ethane sulfonic acid) (PIPES), 40 mM NaOH, pH 7.2) by 500 μl per well. After admixed with Siraganian buffer containing 0.1% bovine serum albumin (BSA), 5.6 mM glucose and 1 mM CaCl2 (hereinafter described as “BSA-containing Siraganian buffer) in a volume of 160 μl per well, the microplate was warmed at 37° C. for 15 minutes. As test samples, 2-aminophenoxazine-3-one (questiomycin A), arbutin having skin-whitening effect and oxatomide used as therapeutic agents for allergic diseases (positive control) were diluted with BSA-containing Siraganian buffer to give the concentrations shown in Table 3, any of the test samples was added by 20 μl per well, then the microplate was warmed at 37° C. for 15 minutes (wells with the test samples). The well with any of the test samples was admixed with DNP-albumin (commercialized by Sigma-Aldrich, Inc.) diluted with BSA-containing Siraganian buffer to give a concentration of 50 μg/ml by 20 μl per well, and warmed at 37° C. for 15 minutes. After the 24-well microplate was cooled on ice for 10 minutes, the supernatant was collected and 100 μl thereof was injected into a 96-well microplate to measure the β-hexosaminidase activity in the supernatant. As negative control, BL-2H3 cells were cultured and treated in the same way as the wells admixed with the test samples except for that FCS-supplemented MEM medium containing no antibody was used, and the β-hexosaminidase activity in the supernatant was measured (the well without IgE sensitization). After the supernatants were removed from some of the wells without IgE sensitization, the wells were washed twice with BSA-containing Siraganian buffer and admixed with BSA-containing Siraganian buffer by 200 μl per well. The cells were broken by twice repeating freezing at −80° C. and thawing, whole medium containing the broken cells was collected, centrifuged at 1,500 rpm for 10 minutes, and then 100 μl of the supernatant was injected into a 96-well microplate to measure the β-hexosaminidase activity of the whole granule extract.
Each well of the 96-well microplate injected with any of the supernatant from the wells with the test samples, the supernatant from the wells without IgE sensitization or the whole granule extract described above was admixed with 50 μl of citrate buffer (pH 4.5) containing 1 mM 4-nitrophenyl-N-acetyl-β-glucosaminide (PNAG) as substrate, kept at 37° C. for 1 hour, and then the reaction was stopped by adding 50 μl of 0.1 M sodium carbonate (pH 10.5). […]

[1] = tested on: Mouse melanoma cell line B16; assay: Living cell rate of B16 cells; conditions: mouse, 5 days
Experimental: (§1) As control, a system with no test sample was provided. […] The amount of protein was measured by conventional Bradfordmethod and the amount of melanin per 1 mg of protein was calculated. The amount of melanin (%) was calculated according to Formula 4, and the living cell rate (%) was calculated according to Formula 5.

[2] = tested on: Mouse melanoma cell line B16; assay: Melanin synthesis in B16 cells; assay type: cell-based; conditions: for Amount of melanin (%): 5 days, per mg protein versus control; for inhibiting effect on melanin production in combinational use: used with 2-aminophenoxsazine-3-one
Experimental: as §1
As control, a system with no test sample was provided. […] The amount of protein was measured by conventional Bradford method and the amount of melanin per 1 mg of protein was calculated. The amount of melanin (%) was calculated according to Formula 4.

RAW264.7 cells [3] = assay: NO production by macrophage RAW264.7, Griess method; assay type: cell-based, mouse; conditions: LPS + IFN-γ, 2 days, relative level versus control
Source text: As macrophage cells, RAW264.7 cell strain from mouse or macrophage cells obtained from laboratory animals such as mouse can be used. The amount of produced NO can be measured by conventional Griess method. […] RAW264.7 cells, a murine macrophage cell strain, were suspended in PRMI1640 medium supplied with 10% (v/v) fetal calf serum (hereinafter abbreviated as “FCS”) to give a cell suspension with a cell concentration of 1×10^6 cells/ml. […] The experimental system without the test samples described above was set as control. […] NO production, PGE2 production and macrophage growth are indicated as relative levels versus controls.

RAW264.7 cells [4] = assay: PGE2 production by macrophage RAW264.7, PGE2-EIA kit; assay type: cell-based, mouse; conditions: LPS + IFN-γ, 2 days, relative level versus control
Source text: (§2) RAW264.7 cells, a murine macrophage cell strain, were suspended in PRMI1640 medium supplied with 10% (v/v) fetal calf serum (hereinafter abbreviated as “FCS”) to give a cell suspension with a cell concentration of 1×10^6 cells/ml. […] The experimental system without the test samples described above was set as control. […] NO production, PGE2 production and macrophage growth are indicated as relative levels versus controls.

RAW264.7 cells [5] = assay: Macrophage growth, living cell count; assay type: cell-based, mouse; conditions: 2 days, relative level versus control
Source text: as §2

Compound: O=c1[nH]c2ccccc2n1CCCN1CCN(C(c2ccccc2)c2ccccc2)CC1 [OX, oxatomide]
inhibition at 1.5 µM (RBL-2H3; Rattus norvegicus, RBL-2H3, 1.5 μM, read-out: Inhibition intensity of degranulation): -30 to 30%
inhibition at 5 µM (RBL-2H3; Rattus norvegicus, RBL-2H3, 5 μM, read-out: Inhibition intensity of degranulation): -30 to 30%
inhibition at 23 µM (RBL-2H3; Rattus norvegicus, RBL-2H3, 23 μM, read-out: Inhibition intensity of degranulation): 30 to 50%
inhibition at 94 µM (RBL-2H3; Rattus norvegicus, RBL-2H3, 94 μM, read-out: Inhibition intensity of degranulation): ≥ 50%
concentration at which inhibiting activity on degranulation was exerted (RBL-2H3): ≥ 23 µM

Living cell rate (%) ([1]; 0.5 mM): 93%
Living cell rate (%) ([1]; 1 mM): 86%
Living cell rate (%) ([1]; 2 mM): 73%
Compound: O=c1cc(CO)occ1O [Koji acid, kojic acid]
Amount of melanin (%) ([2]; 0.5 mM): 79%
Amount of melanin (%) ([2]; 1 mM): 71%
Amount of melanin (%) ([2]; 2 mM): 59%
inhibiting effect on melanin production in combinational use [2]: synergistically exert inhibiting effect on melanin production

concentration at which inhibiting activity on degranulation was exerted (RBL-2H3): no inhibition activity on degranulation
Compound: OC[C@H]1O[C@@H](Oc2ccc(O)cc2)[C@H](O)[C@@H](O)[C@@H]1O [AB, arbutin]
inhibition at 31.3 µM (RBL-2H3; Rattus norvegicus, RBL-2H3, 31.3 μM, read-out: Inhibition intensity of degranulation): -30 to 30%
inhibition at 200 µM (RBL-2H3; Rattus norvegicus, RBL-2H3, 200 μM, read-out: Inhibition intensity of degranulation): -30 to 30%
inhibition at 500 µM (RBL-2H3; Rattus norvegicus, RBL-2H3, 500 μM, read-out: Inhibition intensity of degranulation): -30 to 30%
inhibition at 2000 µM (RBL-2H3; Rattus norvegicus, RBL-2H3, 2000 μM, read-out: Inhibition intensity of degranulation): -30 to 30%

Compound: OC[C@H]1O[C@H](O[C@H]2O[C@H](CO)[C@@H](O)[C@H](O)[C@H]2O)[C@H](O)[C@@H](O)[C@@H]1O [Trehalose, trehalose]
Amount of melanin (%) ([2]; 20 mM): 82%
Amount of melanin (%) ([2]; 40 mM): 75%
Amount of melanin (%) ([2]; 80 mM): 66%
inhibiting effect on melanin production in combinational use [2]: synergistically exert inhibiting effect on melanin production

Compound: COc1ccc2c(c1)c(CC(=O)O)c(C)n2C(=O)c1ccc(Cl)cc1 [IN, indomethacin]
NO production (%) (RAW264.7 cells [3]; 0.16 μM): 86%
NO production (%) (RAW264.7 cells [3]; 0.31 μM): 84%
NO production (%) (RAW264.7 cells [3]; 0.63 μM): 81%
NO production (%) (RAW264.7 cells [3]; 1.3 μM): 82%
NO production (%) (RAW264.7 cells [3]; 2.5 μM): 80%
NO production (%) (RAW264.7 cells [3]; 5.0 μM): 80%
NO production (%) (RAW264.7 cells [3]; 10 μM): 78%
PGE2 production (%) (RAW264.7 cells [4]; 0.16 μM): 4%
PGE2 production (%) (RAW264.7 cells [4]; 0.31 μM): 4%
PGE2 production (%) (RAW264.7 cells [4]; 0.63 μM): 4%
PGE2 production (%) (RAW264.7 cells [4]; 1.3 μM): 3%
PGE2 production (%) (RAW264.7 cells [4]; 2.5 μM): 1%
PGE2 production (%) (RAW264.7 cells [4]; 5.0 μM): 2%
PGE2 production (%) (RAW264.7 cells [4]; 10 μM): 1%
Macrophage growth (%) (RAW264.7 cells [5]; 0.16 μM): 102%
Macrophage growth (%) (RAW264.7 cells [5]; 0.31 μM): 104%
Macrophage growth (%) (RAW264.7 cells [5]; 0.63 μM): 108%
Macrophage growth (%) (RAW264.7 cells [5]; 1.3 μM): 117%
Macrophage growth (%) (RAW264.7 cells [5]; 2.5 μM): 120%
Macrophage growth (%) (RAW264.7 cells [5]; 5.0 μM): 122%
Macrophage growth (%) (RAW264.7 cells [5]; 10 μM): 120%

Compound: CS(=O)(=O)Nc1ccc([N+](=O)[O-])cc1OC1CCCCC1 [NS]
NO production (%) (RAW264.7 cells [3]; 0.16 μM): 90%
NO production (%) (RAW264.7 cells [3]; 0.31 μM): 89%
NO production (%) (RAW264.7 cells [3]; 0.63 μM): 87%
NO production (%) (RAW264.7 cells [3]; 1.3 μM): 85%
NO production (%) (RAW264.7 cells [3]; 2.5 μM): 85%
NO production (%) (RAW264.7 cells [3]; 5.0 μM): 88%
NO production (%) (RAW264.7 cells [3]; 10 μM): 84%
PGE2 production (%) (RAW264.7 cells [4]; 0.16 μM): 4%
PGE2 production (%) (RAW264.7 cells [4]; 0.31 μM): 4%
PGE2 production (%) (RAW264.7 cells [4]; 0.63 μM): 2%
PGE2 production (%) (RAW264.7 cells [4]; 1.3 μM): 1%
PGE2 production (%) (RAW264.7 cells [4]; 2.5 μM): 1%
PGE2 production (%) (RAW264.7 cells [4]; 5.0 μM): 5%
PGE2 production (%) (RAW264.7 cells [4]; 10 μM): 2%
Macrophage growth (%) (RAW264.7 cells [5]; 0.16 μM): 95%
Macrophage growth (%) (RAW264.7 cells [5]; 0.31 μM): 97%
Macrophage growth (%) (RAW264.7 cells [5]; 0.63 μM): 99%
Macrophage growth (%) (RAW264.7 cells [5]; 1.3 μM): 102%
Macrophage growth (%) (RAW264.7 cells [5]; 2.5 μM): 100%
Macrophage growth (%) (RAW264.7 cells [5]; 5.0 μM): 105%
Macrophage growth (%) (RAW264.7 cells [5]; 10 μM): 110%

Compound: O=C1O[C@H]([C@@H](O)CO)C(O)=C1O[C@H]1O[C@H](CO)[C@@H](O)[C@H](O)[C@H]1O [Ascorbic acid 2-glucoside, ascorbic acid 2-glucoside]
Amount of melanin (%) ([2]; 2 mM): 80%
Amount of melanin (%) ([2]; 4 mM): 68%
Amount of melanin (%) ([2]; 8 mM): 63%
inhibiting effect on melanin production in combinational use [2]: synergistically exert inhibiting effect on melanin production
